This is an account of results in patent US20220235088A1 (Memorial Sloan-Kettering Cancer Center, priority 2019, published 2022).

Values after ≈ are worked out from the molar mass of the structure shown. Values joined by “and” are separate entries in the source; they are usually repeats but may differ in a detail not shown here. Identical values can stand only once. “Also recorded” adds a separate entry of the source.

For assay [1], the target named is T1, E. coli MenE (Escherichia coli, UniProt P37353).
T1 construct: His6 (N); made in house; host or cells: E. coli BL21(DE3) pLysS
The assay is described as follows: MenE-MenB coupled enzyme inhibition assay (DHNA-CoA production at 392 nm). It counts as biochemical. To be noted: for inhibition of MenE (in words): MenE coupled assay; for IC50: ecMenE 50 nM, OSB 60 μM, ATP 240 μM, CoA 240 μM, pH 7.4. As to the method:
Enzyme inhibition studies were performed in 20 mM NaHPO4 buffer (pH 7.4) containing 150 mM NaCl and 1 mM MgCl2 using a […] coupled assay in which MenE is rate-limiting. […] Reactions were initiated by addition of ecMenE (50 nM), and the production of DHNA-CoA was monitored at 392 nm (ε392=4000 M^−1 cm^−1).
With these linker analogues in hand, their inhibition of E. coli MenE using the previously reported MenE-Meng coupled assay was evaluated (Lu, X. et al. Bioorg. Med. Chem. Lett. 2008, 18, 5963). Consistent with predictions from the docking experiments, all but one of the analogues inhibited MenE, albeit with modest IC50 values compared to OSB-AMS (1) (Table 2).

Assay [2] deals with T2, E. coli MenE(wt) (Escherichia coli, UniProt P37353).
T2 construct: His6 (N); made in house; host or cells: E. coli BL21(DE3) pLysS
The assay is described as follows: Isothermal titration calorimetry, wild-type MenE. The assay is classed as binding. As to the method: (§1) ITC was performed using VP-ITC instrument at 22° C. Inhibitor (1 mM) and E. coli MenE(wt) (30 μM) were prepared in 20 mM NaHPO4, pH 7.4 buffer containing 150 mM NaCl and 1 mM MgCl2. From the injection syringe, the inhibitor was titrated into the sample cell containing 1.8 mL solution of MenE. The data were fit to a single-binding site model with the Origin software package.
Next. the binding affinity of the 5 with E. coli MenE was deteremined using isothermal titration calorimetry (ITC).

The target of assay [3] is T3, E. coli MenE (K437A) (Escherichia coli, UniProt P37353, K437A).
T3 construct: His6 (N); made in house; host or cells: E. coli BL21(DE3) pLysS
T3 sequence (P37353 1-451 K437A): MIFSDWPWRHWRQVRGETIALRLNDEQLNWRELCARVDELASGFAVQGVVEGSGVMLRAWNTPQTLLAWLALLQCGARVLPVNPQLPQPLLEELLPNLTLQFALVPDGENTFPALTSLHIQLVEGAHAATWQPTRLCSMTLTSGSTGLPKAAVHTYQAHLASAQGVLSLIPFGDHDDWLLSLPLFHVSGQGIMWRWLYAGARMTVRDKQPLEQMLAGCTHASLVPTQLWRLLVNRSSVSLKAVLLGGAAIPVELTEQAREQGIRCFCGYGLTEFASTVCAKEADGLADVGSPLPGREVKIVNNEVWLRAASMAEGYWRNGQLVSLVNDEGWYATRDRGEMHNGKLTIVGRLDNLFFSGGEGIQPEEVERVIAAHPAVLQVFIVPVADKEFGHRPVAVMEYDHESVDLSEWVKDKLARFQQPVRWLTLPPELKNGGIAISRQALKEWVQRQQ
The assay is described as follows: Isothermal titration calorimetry, MenE K437A lynchpin mutant. The assay is classed as binding. To be noted: ITC. As to the method: Based on the nucleotide sequence of MenE (from E. coli strain K-12), the forward primer with the sequence of 5′-[…]-3′ and T7 reverse primer were designed, synthesized, and used to introduce the K437A mutation in E. coli MenE. High-fidelity Phusion polymerase (New England BioLabs) was used for standard polymerase chain reaction amplification and mutagenesis.
as §1
To probe for these interactions experimentally. the binding affinity of m-phenyl ether analogue 5 to wild-type E. coli MenE and the K437A mutant were compared.

For assay [4], the system named is MRSA (ATCC BAA-1762). To be noted: MRSA (ATCC BAA1762); Matarlo et al. Biochemistry 2015; cited from earlier work.

T1 sequence (P37353 whole entry): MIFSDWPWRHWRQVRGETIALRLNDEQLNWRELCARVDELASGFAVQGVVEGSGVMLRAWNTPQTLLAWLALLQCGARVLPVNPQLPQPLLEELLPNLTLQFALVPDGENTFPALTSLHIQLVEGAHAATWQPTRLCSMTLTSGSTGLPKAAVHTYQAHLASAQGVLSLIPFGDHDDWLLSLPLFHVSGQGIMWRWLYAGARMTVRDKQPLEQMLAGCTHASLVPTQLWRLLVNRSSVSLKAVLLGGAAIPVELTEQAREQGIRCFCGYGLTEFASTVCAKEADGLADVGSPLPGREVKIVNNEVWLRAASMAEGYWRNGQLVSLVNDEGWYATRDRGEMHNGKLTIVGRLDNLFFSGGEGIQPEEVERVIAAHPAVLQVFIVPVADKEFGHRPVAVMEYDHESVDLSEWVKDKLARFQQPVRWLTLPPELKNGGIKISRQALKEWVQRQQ
T2 sequence (P37353 whole entry): as above

For the compound `Nc1ncnc2c1ncn2[C@@H]1O[C@H](COc2ccc(CCC(=O)c3ccccc3C(=O)O)cc2)[C@@H](O)[C@H]1O` [compound 6, 5′-O-([2-(Carboxyl)phenyl]3-(3-hydroxyphenyl)propannyl)adenosine], in assay [1], the “inhibition of MenE (in words)” value is listed as “no inhibition; also recorded: did not inhibit MenE” and the IC50 is > 200 µM. For the same compound, the “binding in the ITC assay (in words)” value in assay [2] (E. coli MenE) is “no binding”.
In assay [1], `Nc1ncnc2c1ncn2[C@@H]1O[C@H](COc2cccc(CCC(=O)c3ccccc3C(=O)O)c2)[C@@H](O)[C@H]1O` [compound 5] returned an IC50 of 8.1 ± 0.9 µM. For the same compound, the Kd in assay [2] (ITC, 22° C, wild-type E. coli MenE) was 244 nM and 249 nM; in assay [3] it was 244 nM.
Regarding `Nc1ncnc2c1ncn2[C@@H]1O[C@H](COS(=O)(=O)NC(=O)CCC(=O)c2ccccc2C(=O)O)[C@@H](O)[C@H]1O` [OSB-AMS (1)], in assay [4], the minimum inhibitory concentration (MIC) is 31.25 µg/mL (≈ 56.8 µM).
Turning to `Nc1ncnc2c1ncn2[C@@H]1O[C@H](COc2cc(CCC(=O)c3ccccc3C(=O)O)cc(C(F)(F)F)c2)[C@@H](O)[C@H]1O` [compound 8], in assay [1], the “inhibition of MenE (in words)” value is “slightly weaker inhibition” and the concentration for half-maximal inhibition (IC50) was 26.5 ± 2.3 µM.
